Settings: Liquid, Vibrating tube method

CCCCCCCCCC [decane]
Settings	mass density [kg/m3]
333.14 K, 31467 kPa	725.7
333.14 K, 31504 kPa	725.7
333.14 K, 31531 kPa	725.6
333.14 K, 31564 kPa	725.8
333.14 K, 31694 kPa	725.9
333.14 K, 31764 kPa	725.9
333.14 K, 32193 kPa	726
333.14 K, 32227 kPa	726.1
333.14 K, 32261 kPa	726.2
333.14 K, 32305 kPa	726.2
333.14 K, 32335 kPa	726.3
333.14 K, 32366 kPa	726.3
333.14 K, 32401 kPa	726.4
333.14 K, 32435 kPa	726.3
333.15 K, 358 kPa	699.5
333.15 K, 377 kPa	699.6
333.15 K, 404 kPa	699.5
333.15 K, 423 kPa	699.6
333.15 K, 440 kPa	699.5
333.15 K, 465 kPa	699.6
333.15 K, 501 kPa	699.6
333.15 K, 536 kPa	699.7
333.15 K, 563 kPa	699.6
333.15 K, 600 kPa	699.7
333.15 K, 627 kPa	699.8
333.15 K, 645 kPa	699.8
333.15 K, 672 kPa	699.8
333.15 K, 696 kPa	699.8
333.15 K, 727 kPa	699.7
333.15 K, 765 kPa	699.9
333.15 K, 1005 kPa	700.1
333.15 K, 1052 kPa	700.2
333.15 K, 1108 kPa	700.3
333.15 K, 1167 kPa	700.2
333.15 K, 1210 kPa	700.4
333.15 K, 1236 kPa	700.4
333.15 K, 1263 kPa	700.3
333.15 K, 1284 kPa	700.3
333.15 K, 1315 kPa	700.4
333.15 K, 1341 kPa	700.4
333.15 K, 1363 kPa	700.5
333.15 K, 1393 kPa	700.4
333.15 K, 1421 kPa	700.6
333.15 K, 1449 kPa	700.6
333.15 K, 1481 kPa	700.6
333.15 K, 1519 kPa	700.7
333.15 K, 1544 kPa	700.7
333.15 K, 1588 kPa	700.7
333.15 K, 1620 kPa	700.7
333.15 K, 1662 kPa	700.7
333.15 K, 1706 kPa	700.8
333.15 K, 1751 kPa	701
333.15 K, 1782 kPa	700.9
333.15 K, 1825 kPa	700.9
333.15 K, 1879 kPa	701
333.15 K, 1924 kPa	701
333.15 K, 1954 kPa	701
333.15 K, 2001 kPa	701.1
333.15 K, 2049 kPa	701.1
333.15 K, 2081 kPa	701.2
333.15 K, 2130 kPa	701.3
333.15 K, 2176 kPa	701.4
333.15 K, 2223 kPa	701.4
333.15 K, 2280 kPa	701.4
333.15 K, 2332 kPa	701.3
333.15 K, 2406 kPa	701.5
333.15 K, 2460 kPa	701.6
333.15 K, 2497 kPa	701.6
333.15 K, 2529 kPa	701.6
333.15 K, 2556 kPa	701.6
333.15 K, 2594 kPa	701.7
333.15 K, 2623 kPa	701.7
333.15 K, 2666 kPa	701.7
333.15 K, 2701 kPa	701.7
333.15 K, 2737 kPa	701.7
333.15 K, 2769 kPa	701.8
333.15 K, 2837 kPa	701.9
333.15 K, 3106 kPa	702.2
333.15 K, 3141 kPa	702.3
333.15 K, 3150 kPa	702.3
333.15 K, 3174 kPa	702.3
333.15 K, 3195 kPa	702.3
333.15 K, 3232 kPa	702.3
333.15 K, 3264 kPa	702.3
333.15 K, 3283 kPa	702.4
333.15 K, 3311 kPa	702.4
333.15 K, 3335 kPa	702.4
333.15 K, 3368 kPa	702.4
333.15 K, 3387 kPa	702.5
333.15 K, 3414 kPa	702.4
333.15 K, 3444 kPa	702.5
333.15 K, 3468 kPa	702.5
333.15 K, 3500 kPa	702.6
333.15 K, 3528 kPa	702.6
333.15 K, 3556 kPa	702.7
333.15 K, 3593 kPa	702.6
333.15 K, 3622 kPa	702.7
333.15 K, 3651 kPa	702.7
333.15 K, 3678 kPa	702.8
333.15 K, 3717 kPa	702.7
333.15 K, 3736 kPa	702.8
333.15 K, 3769 kPa	702.8
333.15 K, 3790 kPa	702.8
333.15 K, 3823 kPa	702.8
333.15 K, 3870 kPa	703
333.15 K, 3903 kPa	703
333.15 K, 3934 kPa	703
333.15 K, 3970 kPa	703
333.15 K, 3998 kPa	703.2
333.15 K, 4018 kPa	703.1
333.15 K, 4043 kPa	703.1
333.15 K, 4068 kPa	703.1
333.15 K, 4097 kPa	703.1
333.15 K, 4127 kPa	703.1
333.15 K, 4159 kPa	703.3
333.15 K, 4185 kPa	703.1
333.15 K, 4204 kPa	703.1
333.15 K, 4227 kPa	703.2
333.15 K, 4258 kPa	703.3
333.15 K, 4277 kPa	703.4
333.15 K, 4305 kPa	703.4
333.15 K, 4337 kPa	703.5
333.15 K, 4365 kPa	703.4
333.15 K, 4394 kPa	703.5
333.15 K, 4422 kPa	703.5
333.15 K, 4448 kPa	703.5
333.15 K, 4474 kPa	703.6
333.15 K, 4505 kPa	703.5
333.15 K, 4527 kPa	703.6
333.15 K, 4547 kPa	703.5
333.15 K, 4580 kPa	703.6
333.15 K, 4599 kPa	703.6
333.15 K, 4631 kPa	703.7
333.15 K, 4657 kPa	703.7
333.15 K, 4686 kPa	703.7
333.15 K, 4710 kPa	703.6
